The test system of assay [1] is pyruvate dehydrogenase kinase (PDHK). The note with it: as described in patent document 1 (WO 2014/142290); cited from earlier work.
Assay [2] has as its system saline-loaded SDT-fatty rats; 5/6 nephrectomized rats. Put plainly: disease model animals exhibiting CKD-like renal disorder and decreased renal function (saline-loaded SDT-fatty rat model; 5/6 nephrectomized rat model). The assay is classed as in vivo. The settings on record: oral administration in feed. How it is done: Experimental Example 1: Suppressive effects of compound A on urinary protein excretion and renal disorder by oral administration of monohydrate of compound A in saline-loaded SDT-fatty rat model
In saline-loaded Spontaneously Diabetic Torii fatty (SDI-fatty) rats, suppressive effects of compound A on urinary protein excretion and renal disorder were evaluated. The evaluation was performed by reference to non-patent document 1. As the experiment animal, 6-week-old male SDI-fatty rats (CLEA Japan, Inc.) were used. A normal powder feed (CRF-1 powder, Oriental Yeast. Co., ltd.) containing 0.005 w/w % of a monohydrate of compound A as a free form of compound A was prepared. […]
For urine, after measuring the urine volume, the protein concentration in the urine was measured by the absorbance at wavelength 590 nm using a total protein quantification kit (TONEIN-TP, Otsuka Pharmaceutical Co., Ltd.). Amount of the urinary protein excretion (mg/6 hours) was calculated from the urine volume and protein concentration. […]
The mean and standard deviation of urinary protein excretion for each group were calculated, and the results thereof are shown in FIG. 1. […]
In 5/6 nephrectomized rats, suppressive effects of compound A on urinary protein excretion and renal disorder were evaluated. […]

Molecules are shown by their SMILES.

`CC(C)(O)CCOc1cc(-c2cnn(C(C)(C)C(N)=O)c2)c2c(c1)[C@@](O)(C(F)(F)F)c1ccccc1-2` [compound A, 2-{4-[(9R)-9-hydroxy-2-(3-hydroxy-3-methylbutyloxy)-9-(trifluoromethyl)-9H-fluoren-4-yl]-1H-pyrazol-1-yl}-2-methylpropanamide]: in assay [1], the “pyruvate dehydrogenase kinase (PDHK) inhibitory activity” value is on record as “inhibitory activity”. In addition, the “severity of the disease” value in assay [2] is “significantly reduces the severity of the disease”.

These data come from patent US20220362215A1, “THERAPEUTIC OR PROPHYLACTIC AGENT FOR CHRONIC KIDNEY DISEASE CONTAINING PYRAZOLE-AMIDE COMPOUND” (JAPAN TOBACCO INC., priority 2018, published 2022).
